Experimental data as given in PubChem BioAssay AID1963858 (Molecular Pharmacology Branch, DTP, NCI, 2024).

System: HOP-62 multicell spheroids with HUVEC/MSC, viability
Test: Anticancer human tumor HOP-62 cell line growth inhibition [KRAS2];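 also: viability read after a week of compound exposure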;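 as to viability, T/C: 100% = DMSO vehicle-treated spheroids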
Settings: for IC50: curve of first compound; for viability, T/C: stronger effect = lower value
Description: Multicellular complex tumor spheroid response to RAS pathway inhibitors in combination with a targeted agents in patient-derived cell lines with oncogenic KRAS variants from multiple cancer types
A high-throughput screen of multi-cell type tumor spheroids was designed to identify active combinations of targeted small molecules and KRAS pathway inhibitors. Complex spheroids include a stromal component modeled by human endothelial cells (HUVEC) and fibroblasts modeled by human mesenchymal stem cells (MSCs). The concentration ranges selected for each drug and investigational agent were based upon clinically achievable concentrations if the clinical Cmax of the agent was known.
Compounds. The drugs and investigational agents: BI-3406 (NSC825286), BAY-293 (NSC824723), batoprotafib (TNO155; NSC825523), sotorasib (AMG 510; NSC818433), MRTX1257 (NSC819558), elimusertib (BAY 1895344; NSC800525), molibresib (GSK525762; NSC774829), temuterkib (LY3214996; NSC803410), venetoclax (NSC766270), alisertib (NSC759677), olaparib (NSC753686), talazoparib (NSC767125), erdafitinib (NSC781556), ipatasertib (NSC767898), cabozantinib (NSC761068), nintedanib (NSC756659), abemaciclib (NSC768073), docetaxel (NSC628503), trametinib (NSC758246), and sapanisertib (NSC764658) were obtained from the National Cancer Institute (NCI) Developmental Therapeutics Program Chemical Repository. The FDA-approved anticancer drug set is available from the Developmental Therapeutics Program. […] The stock solutions were prepared in dimethyl sulfoxide (DMSO, Sigma-Aldrich, St. Louis, MO, cat. D2650) at 800-fold the tested concentration and stored at -70 degrees C prior to their use. All drugs and investigational agents were tested over a range starting from a high concentration at or near the clinical Cmax and decreasing in half-log increments. If the clinical Cmax for an agent had not been determined, the highest concentration tested was 10 microM.
Cell Culture. All cells were maintained in an incubator at 37 degrees C and 5% CO2 with 95% humidity. The PDC lines were cultured according to standard operating procedures established by the NCI PDMR (https://pdmr.cancer.gov/sops/default.htm). Briefly, all PDCs were thawed and cultured in Matrigel-coated flasks prepared with a working solution of 1X Ham's F-12 nutrient mix, without supplementation (Invitrogen, Waltham, MA, cat. 11765054), 100 U/mL penicillin-streptomycin (Invitrogen, cat. 15140122), and 2.5% Matrigel (Corning Inc., Corning, NY, cat. 354248) for the first three passages. All PDCs were cultured in complete DMEM/F-12 media containing advanced DMEM/F-12 (Invitrogen, cat. 12634028), 4.9% defined fetal bovine serum, heat inactivated (HyClone Laboratories Inc., Logan, UT, cat. SH30070.03HI), 389 ng/mL hydrocortisone (Sigma-Aldrich, cat. H4001), 9.7 ng/mL human EGF recombinant protein (Invitrogen, cat. PHG0313), 23.4 microg/mL adenine (Sigma-Aldrich, cat. A2786), 97.3 U/mL penicillin-streptomycin (Invitrogen, cat. 15140122), 1.9 mM L-glutamine (Invitrogen, cat. 25030081), and 9.7 microM Y-27632 dihydrochloride (Tocris Bioscience, Bristol, United Kingdom, cat. 1254). The PDCs were cultured in complete DMEM/F12 media without 9.7 microM Y-27632 dihydrochloride for at least two passages prior to the screen. The established cell line HOP-62 was cultured in RPMI 1640 medium, HEPES (Invitrogen, cat. 22400105) with 10% defined fetal bovine serum (HyClone Laboratories Inc., cat. SH30070.03) and 2 mM L-glutamine (Invitrogen, cat. 25030081). The pooled donor HUVEC were cultured in endothelial cell growth medium 2 (PromoCell, Heidelberg, Germany, cat. C-22011) and the hMSC were cultured in mesenchymal stem cell growth medium 2 (PromoCell, cat. C-28009). For all experiments, HUVEC and hMSC were used at passages </=5, while the malignant cell lines were used at passages </=15. […]

[1] = second compound 0.1 µM, first compound 0.01 µM
[2] = second compound 0.1 µM, first compound 0.0316 µM
[3] = second compound 0.1 µM, first compound 0.1 µM
[4] = second compound 0.1 µM, first compound 0.316 µM
[5] = second compound 0.1 µM, first compound 1 µM
[6] = second compound 0.1 µM, first compound 3.16 µM
[7] = second compound 0.316 µM, first compound 0.01 µM
[8] = second compound 0.316 µM, first compound 0.0316 µM
[9] = second compound 0.316 µM, first compound 0.1 µM
[10] = second compound 0.316 µM, first compound 0.316 µM
[11] = second compound 0.316 µM, first compound 1 µM
[12] = second compound 0.316 µM, first compound 3.16 µM
[13] = second compound 1 µM, first compound 0.01 µM
[14] = second compound 1 µM, first compound 0.0316 µM
[15] = second compound 1 µM, first compound 0.1 µM
[16] = second compound 1 µM, first compound 0.316 µM
[17] = second compound 1 µM, first compound 1 µM
[18] = second compound 1 µM, first compound 3.16 µM
[19] = second compound 3.16 µM, first compound 0.01 µM
[20] = second compound 3.16 µM, first compound 0.0316 µM
[21] = second compound 3.16 µM, first compound 0.1 µM
[22] = second compound 3.16 µM, first compound 0.316 µM
[23] = second compound 3.16 µM, first compound 1 µM
[24] = second compound 3.16 µM, first compound 3.16 µM
[25] = second compound 10 µM, first compound 0.01 µM
[26] = second compound 10 µM, first compound 0.0316 µM
[27] = second compound 10 µM, first compound 0.1 µM
[28] = second compound 10 µM, first compound 0.316 µM
[29] = second compound 10 µM, first compound 1 µM
[30] = second compound 10 µM, first compound 3.16 µM
[31] = second compound 0.1 µM, first compound 10 µM
[32] = second compound 0.316 µM, first compound 10 µM
[33] = second compound 1 µM, first compound 10 µM
[34] = second compound 3.16 µM, first compound 10 µM
[35] = second compound 10 µM, first compound 10 µM

| SMILES | IC50 (second compound 0.1 µM) [nM] | IC50 (second compound 0.316 µM) [nM] | IC50 (second compound 1 µM) [nM] | IC50 (second compound 3.16 µM) [nM] | IC50 (second compound 10 µM) [nM] | viability, T/C [2] [%] | viability, T/C [3] [%] | viability, T/C [4] [%] | viability, T/C [5] [%] | viability, T/C [8] [%] | viability, T/C [9] [%] | viability, T/C [10] [%] | viability, T/C [11] [%] | viability, T/C [14] [%] | viability, T/C [15] [%] | viability, T/C [16] [%] | viability, T/C [17] [%] | viability, T/C [20] [%] | viability, T/C [21] [%] | viability, T/C [22] [%] | other results |
| --- | --- | --- | --- | --- | --- | --- | --- | --- | --- | --- | --- | --- | --- | --- | --- | --- | --- | --- | --- | --- | --- |
| CC1COCCN1c1cc(-c2ccnn2C)c2ccnc(-c3ccn[nH]3)c2n1 (stereo not given) + C=CC(=O)N1CCN(c2nc(=O)n(-c3c(C)ccnc3C(C)C)c3nc(-c4c(O)cccc4F)c(F)cc23)C(C)C1 | 27.2 | 33.2 | 23.3 | 12 | < 10 | 48.3 | 15.2 | 11.7 | 11.4 | 51.5 | 19.5 | 12.7 | 10.7 | 44.2 | 19.3 | 11.1 | 10.5 | 33.5 | 15.5 | 11.7 | viability, T/C [1]: 61.3%; viability, T/C [6]: 8.87%; viability, T/C [7]: 66.7%; viability, T/C [12]: 9.1%; viability, T/C [13]: 65.9%; viability, T/C [18]: 10.7%; viability, T/C [19]: 53.1%; viability, T/C [23]: 13.3%; viability, T/C [24]: 12.1%; viability, T/C [25]: 33%; viability, T/C [26]: 23.9%; viability, T/C [27]: 18.1%; viability, T/C [28]: 15.5%; viability, T/C [29]: 13.8%; viability, T/C [30]: 11.3% |
| CCN1CCN(Cc2ccc(Nc3ncc(F)c(-c4cc(F)c5nc(C)n(C(C)C)c5c4)n3)nc2)CC1 + C=CC(=O)N1CCN(c2nc(=O)n(-c3c(C)ccnc3C(C)C)c3nc(-c4c(O)cccc4F)c(F)cc23)C(C)C1 | 150 | 39.5 | 501 | 543 | < 3.16 | 49.4 | 50.5 | 51.3 | 40.5 | 50.6 | 48 | 49.8 | 44.3 | 51.7 | 60 | 57.1 | 39.3 | 57.4 | 53.5 | 63.4 | viability, T/C (second compound 0.1 µM, first compound 0.00316 µM): 58%; viability, T/C [1]: 53.3%; viability, T/C (second compound 0.316 µM, first compound 0.00316 µM): 72.5%; viability, T/C [7]: 69.4%; viability, T/C (second compound 1 µM, first compound 0.00316 µM): 64.9%; viability, T/C [13]: 59.2%; viability, T/C (second compound 3.16 µM, first compound 0.00316 µM): 70.4%; viability, T/C [19]: 63.6%; viability, T/C [23]: 36.9%; viability, T/C (second compound 10 µM, first compound 0.00316 µM): 51.9%; viability, T/C [25]: 41.6%; viability, T/C [26]: 42.1%; viability, T/C [27]: 39.6%; viability, T/C [28]: 38.2%; viability, T/C [29]: 22.7% |
| CCNC(=O)CC1N=C(c2ccc(Cl)cc2)c2cc(OC)ccc2-n2c(C)nnc21 (stereo not given) + C=CC(=O)N1CCN(c2nc(=O)n(-c3c(C)ccnc3C(C)C)c3nc(-c4c(O)cccc4F)c(F)cc23)C(C)C1 | 74.2 | 72.7 | 66.1 | 129 | < 31.6 | 67.2 | 42.7 | 33.2 | 22.6 | 71.2 | 41.1 | 30.1 | 24.9 | 60.6 | 45 | 32.5 | 24.6 | 71.4 | 53.6 | 36.8 | viability, T/C [6]: 19.3%; viability, T/C [31]: 19.4%; viability, T/C [12]: 21.9%; viability, T/C [32]: 20.4%; viability, T/C [18]: 23%; viability, T/C [33]: 19.8%; viability, T/C [23]: 23.3%; viability, T/C [24]: 23.1%; viability, T/C [34]: 19.2%; viability, T/C [26]: 39.2%; viability, T/C [27]: 36.9%; viability, T/C [28]: 25.3%; viability, T/C [29]: 22.2%; viability, T/C [30]: 17.1%; viability, T/C [35]: 17.4% |
| Cn1nccc1Nc1nccc(-c2cc3c(s2)C(C)(C)N(CCN2CCOCC2)C3=O)n1 + C=CC(=O)N1CCN(c2nc(=O)n(-c3c(C)ccnc3C(C)C)c3nc(-c4c(O)cccc4F)c(F)cc23)C(C)C1 | 153 | 253 | 153 | 361 | < 31.6 | 63.7 | 56.7 | 38.6 | 23.9 | 64.5 | 61.5 | 47.3 | 27.2 | 63.7 | 54.4 | 41.3 | 31.3 | 50 | 55 | 52.1 | viability, T/C [6]: 16.5%; viability, T/C [31]: 17.1%; viability, T/C [12]: 20.4%; viability, T/C [32]: 17%; viability, T/C [18]: 18.4%; viability, T/C [33]: 24.6%; viability, T/C [23]: 34%; viability, T/C [24]: 25.2%; viability, T/C [34]: 25%; viability, T/C [26]: 46.1%; viability, T/C [27]: 41.5%; viability, T/C [28]: 33.8%; viability, T/C [29]: 28.2%; viability, T/C [30]: 27.6%; viability, T/C [35]: 34.4% |
